Test results as given in ChEMBL document CHEMBL1147888, “Convenient one pot synthesis and antimicrobial evaluation of some new Mannich bases carrying 4-methylthiobenzyl moiety” (2007).
Values after ≈ are worked out from the molar mass of the structure shown.

Legend:
Type in all cases: functional
Aspergillus fumigatus [1] = test: Antifungal activity against Aspergillus fumigatus NICM902 at 10 ug/ml after 3 to 4 days by serial dilution method; details: read-out: IZ
Klebsiella pneumoniae [2] = test: Antibacterial activity against Klebsiella pneumoniae after 24 hrs by disc diffusion method
Klebsiella pneumoniae [3] = test: Antibacterial activity against Klebsiella pneumoniae after 24 hrs at 10 ug/ml by disc diffusion method; details: read-out: IZ
Aspergillus flavus [4] = test: Antifungal activity against Aspergillus flavus NICM524 at 10 ug/ml after 3 to 4 days by serial dilution method; details: read-out: IZ
Aspergillus fumigatus [5] = test: Antifungal activity against Aspergillus fumigatus NICM902 after 3 to 4 days by serial dilution method
Staphylococcus aureus [6] = test: Antibacterial activity against Staphylococcus aureus ATCC 25923 after 24 hrs by disc diffusion method; details: ATCC 25923, 24 h
Candida albicans [7] = test: Antifungal activity against Candida albicans NICM3100 at 10 ug/ml after 3 to 4 days by serial dilution method; details: read-out: IZ
Aspergillus flavus [8] = test: Antifungal activity against Aspergillus flavus NICM524 after 3 to 4 days by serial dilution method
Pseudomonas aeruginosa [9] = test: Antibacterial activity against Pseudomonas aeruginosa ATCC 27853 at 10 ug/ml after 24 hrs by disc diffusion method; details: ATCC 27853, 24 h, read-out: IZ
Talaromyces marneffei [10] = test: Antifungal activity against Penicillium marneffei after 3 to 4 days by serial dilution method
Escherichia coli [11] = test: Antibacterial activity against Escherichia coli ATCC 25922 after 24 hrs by disc diffusion method; details: ATCC 25922, 24 h
Talaromyces marneffei [12] = test: Antifungal activity against Penicillium marneffei at 10 ug/ml after 3 to 4 days by serial dilution method; details: read-out: IZ
Pseudomonas aeruginosa [13] = test: Antibacterial activity against Pseudomonas aeruginosa ATCC 27853 after 24 hrs by disc diffusion method; details: ATCC 27853, 24 h
Candida albicans [14] = test: Antifungal activity against Candida albicans NICM3100 after 3 to 4 days by serial dilution method
Escherichia coli [15] = test: Antibacterial activity against Escherichia coli ATCC 25922 after 24 hrs at 10 ug/ml by disc diffusion method; details: ATCC 25922, 24 h, read-out: IZ
Staphylococcus aureus [16] = test: Antibacterial activity against Staphylococcus aureus ATCC 25923 at 10 ug/ml after 24 hrs by disc diffusion method; details: ATCC 25923, 24 h, read-out: IZ

| SMILES | zone of inhibition at 10 µg/mL (Aspergillus fumigatus [1]) [mm] | MIC (Klebsiella pneumoniae [2]) [µg/mL] | zone of inhibition at 10 µg/mL (Klebsiella pneumoniae [3]) [mm] | zone of inhibition at 10 µg/mL (Aspergillus flavus [4]) [mm] | MIC (Aspergillus fumigatus [5]) [µg/mL] | MIC (Staphylococcus aureus [6]) [µg/mL] | zone of inhibition at 10 µg/mL (Candida albicans [7]) [mm] | MIC (Aspergillus flavus [8]) [µg/mL] | zone of inhibition at 10 µg/mL (Pseudomonas aeruginosa [9]) [mm] | MIC (Talaromyces marneffei [10]) [µg/mL] | MIC (Escherichia coli [11]) [µg/mL] | zone of inhibition at 10 µg/mL (Talaromyces marneffei [12]) [mm] | MIC (Pseudomonas aeruginosa [13]) [µg/mL] | MIC (Candida albicans [14]) [µg/mL] | zone of inhibition at 10 µg/mL (Escherichia coli [15]) [mm] | zone of inhibition at 10 µg/mL (Staphylococcus aureus [16]) [mm] |
| --- | --- | --- | --- | --- | --- | --- | --- | --- | --- | --- | --- | --- | --- | --- | --- | --- |
| CSc1ccc(Cc2nn(CN3CCOCC3)c(=S)n2/N=C/c2ccc(C)cc2)cc1 | 10 | 12.5 (≈ 27.6 µM) | 10 | 12 | 12.5 (≈ 27.6 µM) | 25 (≈ 55.1 µM) | 12 | 25 (≈ 55.1 µM) | 12 | 12.5 (≈ 27.6 µM) | 25 (≈ 55.1 µM) | 10 | 12.5 (≈ 27.6 µM) | 12.5 (≈ 27.6 µM) | 10 | 10 |
| CSc1ccc(Cc2nn(CN3CCN(C)CC3)c(=S)n2/N=C/c2ccc3c(c2)OCO3)cc1 | 10 | 12.5 (≈ 25.2 µM) | 10 | 10 | 12.5 (≈ 25.2 µM) | 25 (≈ 50.3 µM) | 10 | 25 (≈ 50.3 µM) | 12 | 12.5 (≈ 25.2 µM) | 25 (≈ 50.3 µM) | 10 | 12.5 (≈ 25.2 µM) | 12.5 (≈ 25.2 µM) | 12 | 10 |
| CSc1ccc(Cc2nn(CN3CCOCC3)c(=S)n2/N=C/c2ccc(F)cc2)cc1 | 10 | 12.5 (≈ 27.3 µM) | 12 | 10 | 12.5 (≈ 27.3 µM) | 25 (≈ 54.6 µM) | 10 | 25 (≈ 54.6 µM) | 12 | 12.5 (≈ 27.3 µM) | 25 (≈ 54.6 µM) | 12 | 12.5 (≈ 27.3 µM) | 12.5 (≈ 27.3 µM) | 12 | 12 |
| CSc1ccc(Cc2nn(CN3CCN(C)CC3)c(=S)n2/N=C/c2ccc(C)cc2)cc1 | 10 | 12.5 (≈ 26.8 µM) | 10 | 12 | 12.5 (≈ 26.8 µM) | 25 (≈ 53.6 µM) | 12 | 25 (≈ 53.6 µM) | 12 | 12.5 (≈ 26.8 µM) | 25 (≈ 53.6 µM) | 11 | 12.5 (≈ 26.8 µM) | 12.5 (≈ 26.8 µM) | 12 | 10 |
| CSc1ccc(/C=N/n2c(Cc3ccc(SC)cc3)nn(CN3CCOCC3)c2=S)cc1 | 12 | 12.5 (≈ 25.7 µM) | 12 | 10 | 12.5 (≈ 25.7 µM) | 25 (≈ 51.5 µM) | 10 | 25 (≈ 51.5 µM) | 12 | 12.5 (≈ 25.7 µM) | 25 (≈ 51.5 µM) | 12 | 12.5 (≈ 25.7 µM) | 12.5 (≈ 25.7 µM) | 12 | 10 |
| O=C(O)c1cn(C2CC2)c2cc(N3CCNCC3)c(F)cc2c1=O [CIPROFLOXACIN] | 22 | 6 (≈ 18.1 µM) | 20 | 18 | – | 12.5 (≈ 37.7 µM) | 20 | – | 25 | – | 12.5 (≈ 37.7 µM) | 20 | 6 (≈ 18.1 µM) | – | 18 | 19 |
| COc1ccc(/C=N/n2c(Cc3ccc(SC)cc3)nn(CN3CCOCC3)c2=S)cc1 | 12 | 12.5 (≈ 26.6 µM) | 10 | 12 | 12.5 (≈ 26.6 µM) | 25 (≈ 53.2 µM) | 10 | 25 (≈ 53.2 µM) | 12 | 12.5 (≈ 26.6 µM) | 25 (≈ 53.2 µM) | 12 | 12.5 (≈ 26.6 µM) | 12.5 (≈ 26.6 µM) | 10 | 12 |
| Cc1cc(C2CCCCC2)n(O)c(=O)c1.NCCO [CICLOPIROX OLAMINE] | 22 | – | – | 18 | 6 | – | 20 | 12.5 | – | 6 | – | 20 | – | 6 | – | – |
| CSc1ccc(Cc2nn(CN3CCOCC3)c(=S)n2/N=C/c2ccc(Cl)cc2Cl)cc1 | 12 | 6 (≈ 11.8 µM) | 18 | 10 | 12.5 (≈ 24.6 µM) | 12.5 (≈ 24.6 µM) | 10 | 25 (≈ 49.2 µM) | 23 | 12.5 (≈ 24.6 µM) | 12.5 (≈ 24.6 µM) | 10 | 6 (≈ 11.8 µM) | 12.5 (≈ 24.6 µM) | 17 | 18 |
| CSc1ccc(Cc2nn(CN3CCN(C)CC3)c(=S)n2/N=C/c2ccc(Cl)cc2)cc1 | 20 | 6 (≈ 12.3 µM) | 20 | 18 | 6 (≈ 12.3 µM) | 12.5 (≈ 25.7 µM) | 19 | 12.5 (≈ 25.7 µM) | 24 | 6 (≈ 12.3 µM) | 12.5 (≈ 25.7 µM) | 20 | 6 (≈ 12.3 µM) | 6 (≈ 12.3 µM) | 18 | 18 |
| COc1ccc(/C=N/n2c(Cc3ccc(SC)cc3)nn(CN3CCN(C)CC3)c2=S)cc1 | 12 | 12.5 (≈ 25.9 µM) | 10 | 12 | 12.5 (≈ 25.9 µM) | 25 (≈ 51.8 µM) | 10 | 25 (≈ 51.8 µM) | 10 | 12.5 (≈ 25.9 µM) | 25 (≈ 51.8 µM) | 10 | 12.5 (≈ 25.9 µM) | 12.5 (≈ 25.9 µM) | 10 | 10 |
| CSc1ccc(Cc2nn(CN3CCOCC3)c(=S)n2/N=C/c2ccc(Cl)cc2)cc1 | 10 | 12.5 (≈ 26.4 µM) | 10 | 10 | 12.5 (≈ 26.4 µM) | 25 (≈ 52.7 µM) | 10 | 25 (≈ 52.7 µM) | 12 | 12.5 (≈ 26.4 µM) | 25 (≈ 52.7 µM) | 10 | 12.5 (≈ 26.4 µM) | 12.5 (≈ 26.4 µM) | 10 | 10 |
